# Laboratory results: patent US7169930B2, “Analogs of epothilone” (The Scripps Research Institute, priority 2002, dated 2007)
# Key:
# KB-8511 cells [1] = assay: Cytotoxicity, 96 hour drug exposure, protein dye method, Pgp-overexpressing line; format: cell-based, human; details: versus KB-31; Table 2
# Method: (§1) The biological activities of the synthesized epothilones were evaluated through cytotoxicity, in vitro tubulin polymerization, and tubulin binding assays. Cytotoxicity was first evaluated in a set of ovarian carcinoma cell lines, including a parental cell line (IA9) and three drug-resistant cell lines, namely the paclitaxel-resistant strains (Giannakakou, P.; et al. J. Biol. Chem. 1997, 272, 17118–17125) IA9/PTX10 and IA9/PTX22 and the epothilone-resistant strain (Giannakakou, P.; et al. Proc. Natl. Acad. Sci. U.S.A. 2000, 97, 2904–2909) 1A9/A8. […]
# (§2) The biological activities of the synthesized epothilones were evaluated through cell growth inhibition assays (cytotoxicity assays). Cytotoxicity was first evaluated in a set of ovarian carcinoma cell lines, including a parental cell line (IA9) and three drug-resistant cell lines, namely the paclitaxel-resistant cell lines IA9/PTX10 and IA9/PTX22 (Giannakakou, P.; et al. J. Biol. Chem. 1997, 272, 17118–17125.) and the epothilone-resistant cell line 1A9/A8 (Giannakakou, P.; et al. Proc. Natl. Acad. Sci. 2000, 97, 2904–2909.). […]
# (§3) FIG. 15 illustrates a table disclosing the tubulin polymerization potency and cytotoxicity of epothilones 1–8, 10–14, and paclitaxel against human epidermoid cancer cell lines. […] Relative resistance (RR) was calculated by dividing the IC50 value for the resistant cell line by that of the sensitive cell line. […]
# KB-8511 cells [2] = details: previously shown, Tetrahedron 2002, 58, 6413; cited from earlier work
# porcine tubulin = porcine tubulin (Sus scrofa, UniProt P02554); details: data from ref. 3; cited from earlier work
# Sequence of porcine tubulin (P02554 whole entry): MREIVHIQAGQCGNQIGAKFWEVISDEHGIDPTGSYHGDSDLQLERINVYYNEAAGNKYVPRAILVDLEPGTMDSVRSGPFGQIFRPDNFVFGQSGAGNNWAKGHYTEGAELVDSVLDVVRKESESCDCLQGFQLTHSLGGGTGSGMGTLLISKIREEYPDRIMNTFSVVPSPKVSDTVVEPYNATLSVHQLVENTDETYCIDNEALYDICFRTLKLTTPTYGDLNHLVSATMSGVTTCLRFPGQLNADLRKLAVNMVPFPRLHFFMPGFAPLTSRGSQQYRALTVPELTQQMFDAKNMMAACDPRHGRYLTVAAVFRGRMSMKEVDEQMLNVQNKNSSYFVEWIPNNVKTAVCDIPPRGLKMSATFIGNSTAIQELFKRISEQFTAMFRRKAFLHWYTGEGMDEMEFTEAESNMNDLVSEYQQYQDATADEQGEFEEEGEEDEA
# Sequence of porcine tubulin (P02550 whole entry partner): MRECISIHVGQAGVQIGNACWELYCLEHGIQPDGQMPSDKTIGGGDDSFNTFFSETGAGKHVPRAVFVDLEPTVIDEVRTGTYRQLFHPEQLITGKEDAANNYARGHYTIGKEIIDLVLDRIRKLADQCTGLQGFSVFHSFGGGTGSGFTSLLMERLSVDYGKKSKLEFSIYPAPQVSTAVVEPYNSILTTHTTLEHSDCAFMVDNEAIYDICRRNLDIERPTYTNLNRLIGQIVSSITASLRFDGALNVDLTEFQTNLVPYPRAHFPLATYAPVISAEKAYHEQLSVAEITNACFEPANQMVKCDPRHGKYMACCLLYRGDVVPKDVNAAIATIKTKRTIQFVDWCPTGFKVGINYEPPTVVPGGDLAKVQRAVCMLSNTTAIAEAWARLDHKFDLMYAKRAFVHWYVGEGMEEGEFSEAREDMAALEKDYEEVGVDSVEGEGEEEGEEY
# [3] = target: taxoid binding site of microtubules; assay: Fluorescent taxoid (Flutax-2) displacement assay; details: 37° C., read-out: equilibrium dissociation constant Kd
# Method: In addition to the above biological assays, the relative potency of each epothilone analogue was measured by the fluorescent taxoid displacement assay (Andreu, J. M.; Barasoain, I. Biochemistry 2001, 40, 11975–11984). The purpose of these experiments was to compare the equilibrium constants with which microtubules bind at their taxane site the epothilone analogues investigated. The inhibition of the binding of the well-characterized fluorescent taxoid Flutax-2 (Souto, A. A.; et al. Angew. Chem. Int. Ed. Engl. 1995, 34, 2710–2712; Diaz, J. F.; et al. J. Biol. Chem. 2000, 275, 26265–26276; Abal, M.; et al. Cell. Motil. Cytoskeleton 2001, 49, 1–15) to microtubules by each of the epothilone analogues was measured at 37° C. (FIG. 2). […]
# FIG. 2 illustrates a chart showing the displacement of the fluorescent taxoid Flutax-2 (50 nM) from microtubule binding sites (50 nM) by competing ligands at 37° C. […] Representative curves for selected epothilone analogues (3, 4, and 8) are presented in this figure to exemplify how the binding affinities were measured for each compound in Table 3.
# FIG. 16 illustrates a table disclosing binding affinities of epothilone analogues to the taxoid binding site of microtubules. […] The binding constant of the reference ligand Flutax-2 was measured by centrifugation and fluorescence anisotropy, at each temperature (Diaz, J. F.; et al. J. Biol. Chem. 2000, 275, 26265–26276).
# [4] = system: 1A9 human ovarian carcinoma cells; details: previous data, Tetrahedron 2002, 58, 6413; cited from earlier work
# [5] = system: 1A9 human ovarian carcinoma cells; assay: Cytotoxicity, 72 h growth inhibition SRB (sulforhodamine-B) assay, parental cell line; format: cell-based
# Method: as §1, with “1A9/A8. These resistant cell lines harbor distinct acquired β-tubulin mutations which affect drug-tubulin interaction and result in impaired taxane and epothilone-driven tubulin polymerization. The results of these biological investigations are summarized in Table 1 (Skehan, P.; et al. J. Natl. Cancer Inst. 1990, 82, 1107–1112).” for “1A9/A8.”
# as §2
# [6] = system: KB-31 human epidermoid carcinoma cells; assay: Cytotoxicity, 96 hour drug exposure, protein dye method, parent epidermoid line; format: cell-based; details: KB 3-1, KB-31 cells, 96 hour exposure
# Method: as §1, §2, §3
structure (smiles),measurement,setting,value
CC(=O)O[C@H]1C(=O)[C@@]2(C)[C@H]([C@H](OC(=O)c3ccccc3)[C@]3(O)C[C@H](OC(=O)[C@H](O)[C@@H](NC(=O)c4ccccc4)c4ccccc4)C(C)=C1C3(C)C)[C@]1(OC(C)=O)CO[C@@H]1C[C@@H]2O [paclitaxel],fold less active against KB-8511 cells,KB-8511 cells [1],214 fold
same,fold less active against KB-8511 cells compared to KB-31 cells,KB-8511 cells [2],214 fold
same,% TP (tubulin polymerization),porcine tubulin,49%
"C/C(=C\c1csc(C)n1)[C@@H]1C[C@@H]2O[C@@H]2CCC[C@H](C)[C@H](O)[C@@H](C)C(=O)C(C)(C)[C@@H](O)CC(=O)O1 [Compound 1, epothilone A]",Kd,[3],34 ± 4 nM
same,% TP (tubulin polymerization),porcine tubulin,69%
"CSc1nc(/C=C(\C)[C@@H]2C[C@@H]3O[C@]3(C)CCC[C@H](C)[C@H](O)[C@@H](C)C(=O)C(C)(C)[C@@H](O)CC(=O)O2)cs1 [Compound 3, 2-(thiomethyl)thiazole epothilone B]",Kd,[3],0.64 ± 0.24 nM
same,fold more active than the parent epothilone B,[4],about 2 fold
"C/C(=C\c1csc(C)n1)[C@@H]1C[C@@H]2O[C@]2(C)CCC[C@H](C)[C@H](O)[C@@H](C)C(=O)C(C)(C)[C@@H](O)CC(=O)O1 [Compound 2, epothilone B]",fold more active than epothilone A (1),"[5]; cis epoxide series, conclusion drawn collectively from all three assays",at least 10 fold
same,% TP (tubulin polymerization),porcine tubulin,90%
CC(=Cc1ccc(C)cn1)C1CC2CC2(C)CCCC(C)C(O)C(C)C(=O)C(C)(C)C(O)CC(=O)O1 (centres unmarked) [Compound 8],IC50,"[5]; Homo sapiens, 1A9 cells, 72 h SRB assay",1.7 nM
same,IC50,[6],0.9 nM
